Assay results published in publication PMC7180984, “A Hydrophilic Interaction Liquid Chromatography–Tandem Mass Spectrometry Quantitative Method for Determination of Baricitinib in Plasma, and Its Application in a Pharmacokinetic Study in Rats” (Molecules, 2020).
Like-named read-outs stand apart in the source and are kept apart here.

How the values were obtained:
[1] = Stability of working solutions; type: physicochemical
Method: Stability of the analyte was assessed using five measurements of QC samples at low and high concentrations after exposure to different conditions of storage and processing temperature. Baracitinib stability was evaluated after three freeze-thaw cycles, storage at room temperature (23–25 °C) for 6 h (short term stability), and subsequent storage for eight weeks at −80 °C (long term stability). […]

[2] = tested on: P-glycoprotein (Pgp); parameters: method as in PMID 30907116; details: cited from earlier work
[3] = tested on: breast cancer resistance protein (BCRP); parameters: method as in PMID 30907116; details: cited from earlier work
[4] = cited from earlier work
[5] = Stability of quality control samples in rat plasma; type: in vitro ADME; details: n = 6
Method: […] Baracitinib stability was evaluated after three freeze-thaw cycles, storage at room temperature (23–25 °C) for 6 h (short term stability), and subsequent storage for eight weeks at −80 °C (long term stability). Moreover, the stability of stock and working solutions of baricitinib and the IS at room temperature for 6 h (23–25 °C) and at refrigerator (2–8 °C) for 12 days was tested.

[6] = Pharmacokinetic study in rats after oral administration of baricitinib suspension; type: in vivo, Sprague Dawely rats
Method: Sample analysis was performed on an Acquity TQD UPLC-MS/MS system (Waters Co., Milford, MA, USA). The triple quadrupole mass spectrometer was operated in the MRM mode, and detection was carried out using electrospray ionization (ESI) in the positive ion mode. In addition, the mass spectrometry parameters including parent to daughter ion transition, collision energy, cone voltage, and dwell time were optimized to determine the analyte and IS (Table 5). The collision gas (argon) flow rate was kept at 0.1 mL/min and the desolvation gas (nitrogen) flow rate was optimized to 600 L/h. […] The flow rate was 0.2 mL/min.
Baricitinib and IS were extracted from rat plasma using liquid–liquid extraction. 20 µL of irbesartan working solution (20 µg/mL) was added to 100 µL plasma samples. After vortex-mixing for 20 s, 1 mL of n-hexane:dichlromethane mixture (1:1) was added. Samples were then mixed for 1 min and centrifuged for 5 min at 5600× g. The supernatant (0.8 mL) was transferred to a 5-mL tube and evaporated to dryness at 40 °C. Residues were reconstituted in 100 µL of the mobile phase and 5 µL was injected into the LC-MS/MS system.
Sprague Dawely rats weighing 200–230 g were obtained from the animal house at the National Organization for Drug Control and Research, Giza, Egypt. Rats were fed standard sufficient food and water and experiments were performed under the Guide for Care and Use of laboratory animals. experimental protocols were approved by the ethics committee of the Faculty of Pharmacy at Al-Azhar University, Cairo, Egypt (no. 206).
Baricitinib was used to create a suspension using 1% carboxymethyl cellulose. Following overnight fasting, the drug was administered in a dose of 2 mg/10 mL/kg. Blood samples (approximately 0.25 mL) were then collected from the retro-orbital plexus into heparinized tubes at 0.0, 0.25, 0.5, 0.75, 1.0, 1.25, 2.0, 3.0, 5.0, 7.0, 9.0, and 11.0 h post-dosing. Plasma samples were obtained by centrifuging the blood at 4250× g for 5 min and stored frozen at −80 °C until analysis. The pharmacokinetic parameters Cmax, tmax, AUC, t½, and Kel were calculated using WinNonlin software.

[7] = parameters: method as in PMID 24965573; details: cited from earlier work
[8] = parameters: method as in earlier work; details: pre-clinical animal studies, at higher dosages; cited from earlier work
[9] = tested on: organic anionic transporter (OAT) 3; parameters: method as in PMID 30907116; details: cited from earlier work
[10] = tested on: multidrug and toxic extrusion protein (MATE) 2-K; parameters: method as in PMID 30907116; details: cited from earlier work
[11] = cited from earlier work; remark: listed apart in the source
[12] = tested on: CYP3A4 enzyme; parameters: method as in PMID 30907116; details: cited from earlier work
[13] = refrigerated temperature (2–8 °C) for 10 days
[14] = room temperature (23–25 °C) for 6 h
[15] = Auto-sampler, nominal 40.0 ng/mL
[16] = Auto-sampler, nominal 400.0 ng/mL
[17] = Bench top (6 h), nominal 400.0 ng/mL
[18] = Long term (at −80 °C for 8 weeks), nominal 40.0 ng/mL
[19] = Long term (at −80 °C for 8 weeks), nominal 400.0 ng/mL
[20] = Thaw/freeze (3 cycles), nominal 40.0 ng/mL
[21] = Thaw/freeze (3 cycles), nominal 400.0 ng/mL
[22] = Sprague-Dawley, rat, plasma, male rats, oral 2 mg/kg suspension, fasted, mean ± SD
[23] = rats, literature value higher than present work
[24] = co-administration of high-fat meal
[25] = with rifampicin (potent CYP3A inducer)

Compound: CCCCC1=NC2(CCCC2)C(=O)N1Cc1ccc(-c2ccccc2-c2nnn[nH]2)cc1 [IS, irbesartan]
- Stability of working solution [1, 13]: stable
- Stability of working solution [1, 14]: stable

Compound: CCS(=O)(=O)N1CC(CC#N)(n2cc(-c3ncnc4[nH]ccc34)cn2)C1 [baricitinib, Baricitinib]
- Substrate of P-glycoprotein (Pgp) [2]: substrate
- Substrate of BCRP [3]: substrate
- LDL-C and HDL-C levels [4]: stable dose-response increase
- Infection risk ([4]; particularly for herpes zoster): elevates infection risk
- Safety and tolerability ([4]; patients with moderate to severe RA treated for 24 weeks): safe and well tolerated
- Stability, Accuracy (%) [5, 15]: 89.0%
- Stability, measured conc. Mean ± SD [5, 15]: 35.6 ± 2.69 ng/mL
- Stability, Accuracy (%) [5, 16]: 90.1%
- Stability, measured conc. Mean ± SD [5, 16]: 360.36 ± 11.52 ng/mL
- Stability, measured conc. Mean ± SD ([5]; Bench top (6 h), nominal 40.0 ng/mL): 34.61 ± 3.03 ng/mL
- Stability, Accuracy (%) [5, 17]: 85.8%
- Stability, measured conc. Mean ± SD [5, 17]: 343.27 ± 44.76 ng/mL
- Stability, Accuracy (%) [5, 18]: 86.6%
- Stability, measured conc. Mean ± SD [5, 18]: 34.63 ± 4.63 ng/mL
- Stability, Accuracy (%) [5, 19]: 87.64%
- Stability, measured conc. Mean ± SD [5, 19]: 350.56 ± 28.53 ng/mL
- Stability, Accuracy (%) [5, 20]: 85.1%
- Stability, measured conc. Mean ± SD [5, 20]: 34.09 ± 3.99 ng/mL
- Stability, Accuracy (%) [5, 21]: 86.4%
- Stability, measured conc. Mean ± SD [5, 21]: 345.73 ± 39.84 ng/mL
- AUC(0-inf) [6, 22]: 223 ± 107 ng·h/mL
- Cmax [6, 22]: 129 ± 91.4 ng/mL
- MRT [6, 22]: 3.3 ± 0.78 h
- half-life [6, 22]: 2.24 ± 0.43 h
- AUC(0-t) ([6]; Sprague-Dawley, rat, plasma, male rats, oral 2 mg/kg suspension, fasted, mean ± SD, read-out: AUC0-11): 205 ± 101 ng·h/mL
- Tmax ([6]; Sprague-Dawley, rat, plasma, male rats, oral 2 mg/kg suspension, fasted, median): 0.5 h
- Difference in AUC, value reported by Veeraraghavan et al. versus present work [6, 23]: 4.3 fold
- Difference in Cmax, value reported by Veeraraghavan et al. versus present work [6, 23]: 5 fold
- Time to peak plasma concentrations ([7]; after oral administration): approximately 1 h
- Oral bioavailability [7]: 79%
- Bound to plasma proteins ([7]; mainly albumin): about 50%
- Embryotoxicity and teratogenicity [8]: embryotoxicity, teratogenicity, and adverse effect on bone development in utero
- Substrate of OAT3 [9]: substrate
- Substrate of MATE2-K [10]: substrate
- Stability of working solution [1, 13]: stable
- Stability of working solution [1, 14]: stable
- Delay in tmax [11, 24]: 3 h
- Effect on AUC [11, 24]: no effect
- Reduction of Cmax [11, 24]: about 29%
- Change of clearance ([11]; with an inhibitor of the transporter OAT3): reduced
- Effect on baricitinib pharmacokinetics ([11]; with fluconazole (CYP2C19/CYP2C9/CYP3A inhibitor)): did not significantly affect
- Effect on baricitinib pharmacokinetics ([11]; with ketoconazole (CYP3A inhibitor)): did not significantly affect
- Change of Cmax (rate of absorption) ([11]; with probenecid): not significantly increased
- Potentiation of AUC0-inf ([11]; with probenecid): twofold
- Renal clearance decreased to ([11]; with probenecid): 69%
- Change of AUC [11, 25]: decreased
- Change of Cmax [11, 25]: without affecting
- Metabolism by CYP3A4 [12]: primarily metabolized
